# According to US20230159532A1, “PARATHYROID HORMONE (PTH) RECEPTOR ANTAGONISTS AND USES THEREOF” (Crinetics Pharmaceuticals, Inc., priority 2021, published 2023):
# Molecular target: T1, human PTHR1 receptor (Homo sapiens, UniProt Q03431)
# T1 construct: purchased Eurofins HTS030M
# T1 sequence (Q03431 27-593): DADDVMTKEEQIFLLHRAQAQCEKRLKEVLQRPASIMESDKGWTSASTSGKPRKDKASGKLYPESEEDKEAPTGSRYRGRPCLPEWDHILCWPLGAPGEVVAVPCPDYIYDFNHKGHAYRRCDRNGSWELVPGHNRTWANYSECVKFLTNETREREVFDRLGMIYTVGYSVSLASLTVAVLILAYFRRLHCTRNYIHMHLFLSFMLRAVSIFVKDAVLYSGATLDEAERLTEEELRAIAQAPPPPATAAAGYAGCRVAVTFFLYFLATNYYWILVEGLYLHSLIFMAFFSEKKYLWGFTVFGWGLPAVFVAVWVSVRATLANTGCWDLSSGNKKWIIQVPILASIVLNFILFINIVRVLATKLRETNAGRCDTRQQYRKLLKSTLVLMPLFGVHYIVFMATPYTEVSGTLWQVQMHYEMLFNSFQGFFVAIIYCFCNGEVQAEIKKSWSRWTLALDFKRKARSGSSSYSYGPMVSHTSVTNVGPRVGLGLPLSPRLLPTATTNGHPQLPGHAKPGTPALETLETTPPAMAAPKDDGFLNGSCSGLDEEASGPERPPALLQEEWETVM
# Assay: Competitive antagonist binding assay for hPTH-R1 (radioactive competition binding, SPA beads)
# Conditions: human PTHR1 membranes, [125I]-[Nle8,18,Tyr34]-PTH(1-34) 0.2 nM, 90 minutes at room temperature; read-out: hPTHR1 Ki
# Procedure: Competitive Antagonist Binding Assay Protocol for hPTH-R1 Antagonists:
# The inhibition of binding to the human PTHR1 receptor was measured in a radioactive competition binding assay using the radiolabeled [^125I]-[NLE^8,18, TYR^34]-parathyroid hormone (1-34) ligand (PerkinElmer Cat# NEX244, custom synthesis) as the probe ligand for the receptor. Briefly, membranes from cells expressing the human PTHR1 (Eurofins Cat# HTS030M) were incubated with SPA beads (PerkinElmer Cat# RPNQ0001) in binding assay buffer [50 mM HEPES (Biopioneer Cat# C0113), 5 mM MgCl2 (Sigma Cat# M8266), 10 mM CaCl2 (Fisher Scientific Cat# BP510), 0.1% BSA (Fisher Scientific Cat# BP1600), 0.01% TritonX-100 (Bio-Rad Cat#161-0407), and protease inhibitors (Pierce Cat# A32963); pH 7.4]. Membranes bound to SPA bead were treated with various dilutions of compounds (final concentrations typically 0-10,000 nM), and 0.2 nM radiolabeled ligand in 96-well isoplates (PerkinElmer Cat#6005040) for 90 minutes at room temperature. The radioactive signal was detected using a MicroBetaTriLux 1450 LSC (PerkinElmer). All data manipulations to determine the Ki values were performed using GraphPad v8 (GraphPad, San Diego Calif.).
row,Ki [nM],Structure (SMILES)
1,< 100,"CCN1C(=O)N(c2c(F)cc(NCCNCCO)cc2F)c2cc(Cl)cc(C)c2-c2cc(Cl)cnc21 [1-51, 4,13-dichloro-10-[2,6-difluoro-4-({2-[(2-hydroxyethyl)amino]ethyl}amino)phenyl]-8-ethyl-15-methyl-6,8,10-triazatricyclo[9.4.0.0^2,7]pentadeca-1(11),2(7),3,5,12,14-hexaen-9-one]"
2,< 100,"CN1C(=O)N(c2c(F)cc(NCCN)cc2F)c2cc(C#N)ccc2-c2cc(Cl)cnc21 [1-223, 10-{4-[(2-aminoethyl)amino]-2,6-difluorophenyl}-4-chloro-8-methyl-9-oxo-6,8,10-triazatricyclo[9.4.0.0^2,7]pentadeca-1(11),2(7),3,5,12,14-hexaene-13-carbonitrile]"
3,< 100,"CCN1C(=O)N(c2c(F)cc(NCCNCCO)cc2F)c2cc(Cl)cc(Cl)c2-c2cc(F)cnc21 [1-37, 13,15-dichloro-10-[2,6-difluoro-4-({2-[(2-hydroxyethyl)amino]ethyl}amino)phenyl]-8-ethyl-4-fluoro-6,8,10-triazatricyclo[9.4.0.0^2,7]pentadeca-1(11),2(7),3,5,12,14-hexaen-9-one]"
4,< 100,"CN1C(=O)N(c2c(F)cc(NCCN)cc2F)c2cc(Cl)ccc2-c2cc(Cl)cnc21 [1-33, 10-{4-[(2-aminoethyl)amino]-2,6-difluorophenyl}-4,13-dichloro-8-methyl-6,8,10-triazatricyclo[9.4.0.0^2,7]pentadeca-1(11),2(7),3,5,12,14-hexaen-9-one]"
5,< 100,"CCN1C(=O)N(c2c(F)cc(NCCNCCO)cc2F)c2cc(Cl)ccc2-c2c1ncc(Cl)c2C [3-4, 4,13-dichloro-10-[2,6-difluoro-4-({2-[(2-hydroxyethyl)amino]ethyl}amino)phenyl]-8-ethyl-3-methyl-6,8,10-triazatricyclo[9.4.0.0^2,7]pentadeca-1(11),2(7),3,5,12,14-hexaen-9-one]"
6,< 100,"CCN1C(=O)N(c2c(F)cc(NCCN[C@@H](C)CO)cc2F)c2cc(C#N)ccc2-c2cc(Cl)cnc21 [1-185, 4-chloro-10-{2,6-difluoro-4-[(2-{[(2S)-1-hydroxypropan-2-yl]amino}ethyl)amino]phenyl}-8-ethyl-9-oxo-6,8,10-triazatricyclo[9.4.0.0^2,7]pentadeca-1(11),2(7),3,5,12,14-hexaene-13-carbonitrile]"
7,< 100,"Cc1cc(C#N)cc2c1-c1cc(F)cnc1N(C)C(=O)N2c1c(F)cc(NCCNCCO)cc1F [1-112, 10-[2,6-difluoro-4-({2-[(2-hydroxyethyl)amino]ethyl}amino)phenyl]-4-fluoro-8,15-dimethyl-9-oxo-6,8,10-triazatricyclo[9.4.0.0^2,7]pentadeca-1(11),2(7),3,5,12,14-hexaene-13-carbonitrile]"
8,< 100,"CCN1C(=O)N(c2c(F)cc(NCCN[C@H]3C[C@@H](O)C3)cc2F)c2cc(C#N)ccc2-c2cc(C(F)(F)F)cnc21 [1-207, 10-{2,6-difluoro-4-[(2-{[(1s,3s)-3-hydroxycyclobutyl]amino}ethyl)amino]phenyl}-8-ethyl-9-oxo-4-(trifluoromethyl)-6,8,10-triazatricyclo[9.4.0.0^2,7]pentadeca-1(11),2(7),3,5,12,14-hexaene-13-carbonitrile]"
9,< 100,"CNCCNc1cc(F)c(N2C(=O)N(C(C)C)c3ncc(F)cc3-c3ccc(C#N)cc32)c(F)c1 [1-84, 10-(2,6-difluoro-4-{[2-(methylamino)ethyl]amino}phenyl)-4-fluoro-9-oxo-8-(propan-2-yl)-6,8,10-triazatricyclo[9.4.0.0^2,7]pentadeca-1(11),2(7),3,5,12,14-hexaene-13-carbonitrile]"
10,100 to 1000,"CCN1C(=O)N(c2c(F)cc(NCCN3CCOCC3)cc2F)c2cc(C#N)ccc2-c2cc(Cl)cnc21 [1-148, 4-chloro-10-(2,6-difluoro-4-{[2-(morpholin-4-yl)ethyl]amino}phenyl)-8-ethyl-9-oxo-6,8,10-triazatricyclo[9.4.0.0^2,7]pentadeca-1(11),2(7),3,5,12,14-hexaene-13-carbonitrile]"
11,< 100,"CCN1C(=O)N(c2c(F)cc(NCCNC)cc2F)c2cc(C#N)ccc2-c2cc(F)ccc21 [3-19, 8-(2,6-difluoro-4-{[2-(methylamino)ethyl]amino}phenyl)-10-ethyl-14-fluoro-9-oxo-8,10-diazatricyclo[9.4.0.0^2,7]pentadeca-1(11),2(7),3,5,12,14-hexaene-5-carbonitrile]"
12,< 100,"CCN1C(=O)N(c2c(F)cc(NCCN[C@H](C)CO)cc2F)c2cc(C#N)ccc2-c2cc(F)cnc21 [1-214, 10-{2,6-difluoro-4-[(2-{[(2R)-1-hydroxypropan-2-yl]amino}ethyl)amino]phenyl}-8-ethyl-4-fluoro-9-oxo-6,8,10-triazatricyclo[9.4.0.0^2,7]pentadeca-1(11),2(7),3,5,12,14-hexaene-13-carbonitrile]"
13,< 100,"CCN1C(=O)N(c2c(F)cc(NCCNCCO)cc2F)c2cc(C#N)ccc2-c2cc(F)cnc21 [1-82, 10-[2,6-difluoro-4-({2-[(2-hydroxyethyl)amino]ethyl}amino)phenyl]-8-ethyl-4-fluoro-9-oxo-6,8,10-triazatricyclo[9.4.0.0^2,7]pentadeca-1(11),2(7),3,5,12,14-hexaene-13-carbonitrile]"
14,< 100,"CCN1C(=O)N(c2c(F)cc(NCCNCCCC(=O)O)cc2F)c2cc(C#N)cc(C)c2-c2cc(F)cnc21 [1-68, 4-({2-[(4-{13-cyano-8-ethyl-4-fluoro-15-methyl-9-oxo-6,8,10-triazatricyclo[9.4.0.0^2,7]pentadeca-1(11),2(7),3,5,12,14-hexaen-10-yl}-3,5-difluorophenyl)amino]ethyl}amino)butanoic acid]"
15,< 100,"Cc1cc(Cl)cc2c1-c1cc(F)cnc1N(C)C(=O)N2c1c(F)cc(NCCNCCO)cc1F [1-76, 13-chloro-10-[2,6-difluoro-4-({2-[(2-hydroxyethyl)amino]ethyl}amino)phenyl]-4-fluoro-8,15-dimethyl-6,8,10-triazatricyclo[9.4.0.0^2,7]pentadeca-1(11),2(7),3,5,12,14-hexaen-9-one]"
16,< 100,"CCN1C(=O)N(c2c(F)cc(N3CCN(CCO)CC3)cc2F)c2cc(C#N)ccc2-c2cc(Cl)cnc21 [1-144, 4-chloro-10-{2,6-difluoro-4-[4-(2-hydroxyethyl)piperazin-1-yl]phenyl}-8-ethyl-9-oxo-6,8,10-triazatricyclo[9.4.0.0^2,7]pentadeca-1(11),2(7),3,5,12,14-hexaene-13-carbonitrile]"
17,< 100,"CCN1C(=O)N(c2c(F)cc(NCCNC)cc2F)c2cc(Cl)ccc2-c2cc(F)cnc21 [1-14, 13-chloro-10-(2,6-difluoro-4-{[2-(methylamino)ethyl]amino}phenyl)-8-ethyl-4-fluoro-6,8,10-triazatricyclo[9.4.0.0^2,7]pentadeca-1(11),2(7),3,5,12,14-hexaen-9-one]"
18,< 100,"CCN1C(=O)N(c2c(F)cc(NC[C@@H]3COCCN3)cc2F)c2cc(C#N)ccc2-c2cc(Cl)cnc21 [1-151, 4-chloro-10-[2,6-difluoro-4-({[(3R)-morpholin-3-yl]methyl}amino)phenyl]-8-ethyl-9-oxo-6,8,10-triazatricyclo[9.4.0.0^2,7]pentadeca-1(11),2(7),3,5,12,14-hexaene-13-carbonitrile]"
19,< 100,"CCN1C(=O)N(c2c(F)cc(NCCN)cc2F)c2cc(Cl)ccc2-c2cccnc21 [1-3, 10-{4-[(2-aminoethyl)amino]-2,6-difluorophenyl}-13-chloro-8-ethyl-6,8,10-triazatricyclo[9.4.0.0^2,7]pentadeca-1(11),2(7),3,5,12,14-hexaen-9-one]"
20,< 100,"CCN1C(=O)N(c2c(F)cc(NC3CNC3)cc2F)c2cc(C#N)ccc2-c2cc(Cl)cnc21 [1-234, 10-{4-[(azetidin-3-yl)amino]-2,6-difluorophenyl}-4-chloro-8-ethyl-9-oxo-6,8,10-triazatricyclo[9.4.0.0^2,7]pentadeca-1(11),2(7),3,5,12,14-hexaene-13-carbonitrile]"
21,< 100,"CCN1C(=O)N(c2ncc(NCCNCCO)cc2F)c2cc(Cl)ccc2-c2cc(Cl)cnc21 [2-10, 4,13-dichloro-8-ethyl-10-[3-fluoro-5-({2-[(2-hydroxyethyl)amino]ethyl}amino)pyridin-2-yl]-6,8,10-triazatricyclo[9.4.0.0^2,7]pentadeca-1(11),2(7),3,5,12,14-hexaen-9-one]"
